# In patent publication US9867377B2, “Composition comprising a biological control agent and an insecticide” (Bayer CropScience AG, priority 2012, dated 2018):
# What was measured:
# Format in all cases: in vivo
# [1] = system: two spotted spidermite (Tetranychus urticae); assay: Tetranychus urticae - spray test, OP-resistant; conditions: mortality, infested French beans sprayed
# Protocol: (§1) Formula for the efficacy of the combination of two compounds • The expected efficacy of a given combination of two compounds is calculated as follows (see Colby, S. R., “Calculating Synergistic and antagonistic Responses of Herbicide Combinations”, Weeds 15, pp. 20-22, 1967): • If • X is the efficacy expressed in % mortality of the untreated control for test compound A at a concentration of m ppm respectively m g/ha, • Y is the efficacy expressed in % mortality of the untreated control for test compound B at a concentration of n ppm respectively n g/ha, • E is the efficacy expressed in % mortality of the untreated control using the mixture of A and B at m and n ppm respectively m and n g/ha, • then is
# (§2) [formula] • If the observed insecticidal efficacy of the combination is higher than the one calculated as, “E”, then the combination of the two compounds is more than additive, i.e., there is a synergistic effect.
# Tetranychus urticae—Spray Test, OP-Resistant
# (§3) Solvent: 78.0 parts by weight acetone • 1.5 parts by weight dimethylformamide
# (§4) Emulsifier: alkylaryl polyglycol ether
# (§5) To produce a suitable preparation of active compound, 1 part by weight of active compound is mixed with the stated amount of solvents and is diluted with water, containing an emulsifier concentration of 1000 ppm, to the desired concentration. To produce a suitable preparation of a spore suspension the spores are diluted with emulsifier containing water to the desired concentration. Further test concentrations are prepared by dilution with emulsifier containing water.
# French beans (Phaseolus vulgaris) which are heavily infested with all stages of the two spotted spidermite (Tetranychus urticae), are sprayed with a preparation of the active ingredient of the desired concentration.
# After the specified period of time, mortality in % is determined. 100% means all spider mites have been killed and 0% means none of the spider mites have been killed. The mortality values determined thus are recalculated using the Colby-formula (see sheet 1).
# [2] = system: mustard beetle larvae (Phaedon cochleariae); assay: Phaedon cochleariae - spray test; conditions: mortality, Chinese cabbage leaf disks sprayed
# Protocol: as §1, §2
# Phaedon cochleariae—Spray Test
# Solvent: 78.0 parts by weight of acetone • • 1.5 parts by weight of dimethylformamide
# Emulsifier: alkylaryl polyglycol ether […]
# After the specified period of time, mortality in % is determined. […] The mortality values determined thus are recalculated using the Colby-formula (see sheet 1).
# [3] = system: green peach aphid (Myzus persicae); assay: Myzus persicae - spray test; conditions: mortality, infested Chinese cabbage leaf disks sprayed; for Efficacy in % after 6 d: 0.4 g ai/ha
# Protocol: as §1, §2
# Myzus persicae—Spray Test
# as §3, §4, §5
# Chinese cabbage (Brassica pekinensis) leaf-disks infected with all instars of the green peach aphid (Myzus persicae) are sprayed with a preparation of the active ingredient of the desired concentration.
# After the specified period of time, mortality in % is determined. 100% means all aphids have been killed; 0% means none of the aphids have been killed. The mortality values determined thus are recalculated using the Colby-formula (see sheet 1).
structure (smiles),measurement,setting,value
"Cc1cc(F)c(-n2nc(C(F)(F)F)nc2N)cc1[S+]([O-])CC(F)(F)F (stereo not shown) [AMSI 378, 1-{2-fluoro-4-methyl-5-[(2,2,2-trifluorethyl)sulfinyl]phenyl}-3-(trifluoromethyl)-1H-1,2,4-triazol-5-amine]",Efficacy in % after 2 d,[1]; 4 g ai/ha,30%
same,Efficacy in % after 6 d,[1]; 4 g ai/ha,0%
CNC(=O)c1cc(C#N)cc(C)c1NC(=O)c1cc(Cn2nnc(C(F)(F)F)n2)nn1-c1ncccc1Cl [BCS-CL73507],Efficacy in % after 6 d,[2]; 0.08 g ai/ha,0%
same,Efficacy in % after 6 d,[3],0%
O=C(NCCc1ncc(C(F)(F)F)cc1Cl)c1ccccc1C(F)(F)F [Fluopyram],Efficacy in % after 6 d,[2]; 100 g ai/ha,0%
same,Efficacy in % after 1 d,[3]; 1000 g ai/ha,0%
O=C1C=C(N(Cc2ccc(Cl)nc2)CC(F)F)CO1 [Flupyradifurone],Efficacy in % after 6 d,[1]; 250 g ai/ha,0%
same,Efficacy in % after 1 d,[3]; 20 g ai/ha,0%
Cc1cc(C)c(C2=C(OC(=O)CC(C)(C)C)C3(CCCC3)OC2=O)c(C)c1 [Spiromesifen],Efficacy in % after 6 d,[1]; 0.5 g ai/ha,0%
CCOC(=O)OC1=C(c2cc(C)ccc2C)C(=O)N[C@]12CC[C@@H](OC)CC2 [Spirotetramat],Efficacy in % after 6 d,[3],0%
